Experimental data as given in patent publication US20090215850A1, “METHOD FOR TREATING CB2 RECEPTOR MEDIATED PAIN” (priority 2008, published 2009).

Key:
CB2 receptor = molecular target: T1, CB2 receptor (Rattus norvegicus, UniProt Q9QZN9); conditions: background statement; cited from earlier work
T1 sequence (Q9QZN9 1-360): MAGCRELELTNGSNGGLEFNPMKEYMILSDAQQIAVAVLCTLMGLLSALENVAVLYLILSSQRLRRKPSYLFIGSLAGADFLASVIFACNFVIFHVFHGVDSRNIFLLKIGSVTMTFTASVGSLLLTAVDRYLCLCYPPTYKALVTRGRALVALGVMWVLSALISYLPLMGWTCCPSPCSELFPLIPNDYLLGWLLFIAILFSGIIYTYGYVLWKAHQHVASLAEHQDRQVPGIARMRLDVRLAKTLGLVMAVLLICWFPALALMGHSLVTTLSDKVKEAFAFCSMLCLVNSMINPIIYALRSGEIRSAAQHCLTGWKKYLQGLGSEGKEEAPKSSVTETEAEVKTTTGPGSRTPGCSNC

male Sprague-Dawley rats [1] = test: Carrageenan model of inflammatory pain, radiant heat paw withdrawal, compound given before carrageenan (Example 1); assay type: in vivo, rat; conditions: seconds±SEM
Protocol: Intraplantar injection of carrageenan (Cg) in a rodent produces pronounced hypersensitivity to both thermal and mechanical stimuli. The effects of carrageenan are maximal 2-4 hr after administration.
(§1) To assess the ability of test compounds to reverse thermal hyperalgesia, baseline response latencies on a radiant heat (RH) paw stimulator were obtained before an intraplantar injection of carrageenan-λ (200 μL) in male Sprague-Dawley rats (250-350 g in treatment groups of 9 animals each). Only withdrawal responses that were quick hind paw movements (with or without licking of the hind paw) were recorded. Paw movements associated with locomotion or a shifting of weight were not considered a withdrawal response.
(§2) The weight of each animal was recorded on the day of the experiment. Each animal was placed on a warm (approx. body temperature, 30° C.) glass surface and allowed to acclimate to the test chamber for approximately 10-15 minutes. A radiant thermal stimulus (beam of light) was then focused on the sole of each hind paw in turn, and an initial (baseline) response time to thermal stimuli was recorded for each animal. The stimulus intensity (radiant heat at a setting of 5 Amps) that produced 10-15 sec baseline withdrawal latencies was used and a maximum cutoff of 20 sec was imposed. The light stimulus was automatically shut off by a photoelectric relay when the foot moved or when the cut-off time limit was reached.
One treatment group (8 animals each) was injected i.p. with vehicle (5% DMSO and 5% Tween-80 in sterile saline). The other treatment groups (8 animals each) were injected i.p. with 3, 10 or 30 mg/kg Compound 2.
One hour later, withdrawal latencies for the animals administered vehicle were recorded. After assessment, all animals were administered 1% carrageenan (200 μL in sterile saline) subcutaneously into the sub-plantar tissue of the left hind paw to stimulate an acute inflammatory reaction. Three hours later, the response time of the animals to the thermal stimulus was evaluated.

male Sprague-Dawley rats [2] = test: Carrageenan model of inflammatory pain, radiant heat paw withdrawal, compound given 2.5 hr after carrageenan (Example 2); assay type: in vivo, rat; conditions: 30 min after compound, seconds±SEM
Protocol: as §1, §2
The experiment of Example 1 is repeated with the exception that animals are first administered 1% carrageenan (200 μL in sterile saline) subcutaneously into the sub-plantar tissue of the left hind paw to stimulate an acute inflammatory reaction.
Two and a half hours later, withdrawal latencies are assessed (‘post-Cg’). One treatment group is then injected i.p. with vehicle (5% DMSO and 5% Tween-80 in sterile saline). The other treatment groups are injected i.p. with 3, 10 or 30 mg/kg of Compound 2. Thirty minutes after test compound administration withdrawal latencies are recorded.

Row | Structure (SMILES) | antinociception to thermal stimuli (CB2 receptor) | response time (withdrawal latency) to thermal stimulus, 3 hrs post Cg administration (male Sprague-Dawley rats [1]; 3 mg/kg i.p. 1 hr before 1% carrageenan) [s] | response time (withdrawal latency) to thermal stimulus, 3 hrs post Cg administration (male Sprague-Dawley rats [1]; 10 mg/kg i.p. 1 hr before 1% carrageenan) [s] | response time (withdrawal latency) to thermal stimulus, 3 hrs post Cg administration (male Sprague-Dawley rats [1]; 30 mg/kg i.p. 1 hr before 1% carrageenan) [s] | withdrawal latency, 3 hrs post Cg administration (male Sprague-Dawley rats [2]; 3 mg/kg i.p. 2.5 hr after 1% carrageenan) [s] | withdrawal latency, 3 hrs post Cg administration (male Sprague-Dawley rats [2]; 10 mg/kg i.p. 2.5 hr after 1% carrageenan) [s] | withdrawal latency, 3 hrs post Cg administration (male Sprague-Dawley rats [2]; 30 mg/kg i.p. 2.5 hr after 1% carrageenan) [s]
1 | CN1CCCCC1Cn1cc(C(=O)c2cc([N+](=O)[O-])ccc2I)c2ccccc21 (stereo not shown) [AM1241] | produces antinociception |  |  |  |  |  | 
2 | O=C(NCC12CC3CC(CC(C3)C1)C2)c1nn(C2CCCCC2)c2c1CCCCCC2 [Compound 2, 1-cyclohexyl-4,5,6,7,8,9-hexahydro-1H-cyclooctapyrazole-3-carboxylic acid (adamantan-1-ylmethyl)-amide] |  | 5.11 ± 0.84 | 6.18 ± 0.91 | 14.41 ± 1.75 | 5.92 ± 1.15 | 6.88 ± 0.44 | 8.52 ± 1.08
